Experimental data taken from patent publication US6268380A, “Urea derivatives useful as platelet aggregation inhibitors” (G. D. Searle & Co., priority 1993, dated 2001).

Experiments:
[1] = system: platelet aggregation in Dog PRP; experiment: In-Vitro Platelet Aggregation in PRP (ADP induced); assay type: cell-based; conditions: Canis lupus familiaris, ADP 50 um final concentration
Method: Healthy male or female dogs were fasted for 8 hours prior to drawing blood; then 30 ml whole blood was collected using a butterfly needle and 30 cc plastic syringe with 3 ml of 0.129 M buffered sodium citrate (3.8%). The syringe was rotated carefully as blood was drawn to mix the citrate. Platelet-rich plasma (PRP) was prepared by centrifugation at 975×g for 3.17 minutes at room temperature allowing the centrifuge to coast to a stop without braking. The PRP was removed from the blood with a plastic pipette and placed in a plastic capped, 50 mL Corning conical sterile centrifuge tube which was held at room temperature. Platelet poor plasma (PPP) was prepared by centrifuging the remaining blood at 2000×g for 15 minutes at room temperature allowing the centrifuge to coast to a stop without braking. The PRP was adjusted with PPP to a count of 2-3×10^8 platelets per mL. 400 uL of the PRP preparation and 50 uL of the compounds solution to be tested or saline were preincubated for 1 minute at 37° C. in a […].). 50 uL of adenosine 5' diphosphate (ADP) (50 um final concentration) was added to the cuvettes and the aggregation was monitored for 1 minute. All compounds are tested in duplicate. Results are calculated as follows: Percent of control=[(maximal OD minus initial OD of compound) divided by (maximal OD minus initial OD of control saline)]×100. The % inhibition=100-(percent of control).
The compounds tested and their median inhibitory concentrations (IC50) are recorded in Table I. IC50 's (dosage at which 50% of platelet aggregation is inhibited) were calculated by linear regression of the dose response curve.

[2] = system: ex vivo collagen induced platelet aggregation; experiment: Inhibition of ex vivo collagen induced aggregation (compound administered to dogs); parameters: species or system dog (Beagles); key: *: not active at the dose tested; conditions: intragastric (IG) administration to dogs; collagen induced aggregation in PRP ex vivo; dose not given
Method: The purpose of this assay is to determine the effects of antiplatelet compounds on ex vivo collagen induced platelet aggregation when administered either intravenously or orally to dogs.
Pretreatment (control) blood samples are drawn from either conscious or anesthetized dogs (Beagles) and centrifuged to prepare platelet rich plasma (PRP). Aggregatory response to collagen is measured in a aggregometer and used as Control. Compounds are administered, either intragasterically (either by capsule or stomach tube or intravenously). Blood samples are drawn at predetermined intervals after compound administration, PRP prepared and aggregation to collagen determined. Compound inhibition of aggregation is determined by comparing the aggregation response after compound administration to the pretreatment response.

For N=C(N)c1ccc(NC(=O)N2CCCC(C(=O)NC(CC(=O)O)c3cccnc3)C2)cc1 (stereo not drawn) [Example 2, β-[[N-3-[[[4-(aminoiminomethyl)phenyl]amino]carbonyl]piperidylcarbonyl]amino]-3-pyridinepropanoic acid], the IC50 ([1]; 1 min, 37° C., aggregation monitored 1 minute) was 850 nM and the “Ex Vivo Effect after IG Administration” value [2] was “*”.

N=C(N)c1ccc(NC(=O)N2CCCC2C(=O)NC(CC(=O)O)c2cccnc2)cc1 (stereo not drawn) [Example 4, β-[[N-2-[[[4-(aminoiminomethyl)phenyl]amino]carbonyl]pyrrolidylcarbonyl]amino]-3-pyridinepropanoic acid] was tested, and the inhibition at 10 µM ([1]; at 10^-5 M, read-out: Dog PRP % Inh.) was 30%.

With N=C(N)c1ccc(NC(=O)N2CCC(C(=O)NC(CC(=O)O)c3cccnc3)CC2)cc1 (stereo not drawn) [Example 6, β-[[N-[[[4-(aminoiminomethyl)phenyl]amino]carbonyl]4-piperidylcarbonyl]amino]-3-pyridinepropanoic acid] the inhibition at 1 µM ([1]; at 10^-6 M, read-out: Dog PRP % Inh.) was 19%.
